This is an account of results in US20220411419A1, “SMALL MOLECULE MODULATORS OF MHC-I” (RetroVirox, Inc., priority 2018, published 2022).

Like-named read-outs stand apart in the source and are kept apart here.

Series [1] has as its system surface MHC-I in uninfected SupT1 cells (GFP-negative). Briefly: Surface MHC-I in GFP-negative (uninfected) SupT1 cells of cultures treated with HIV-1 (FIG. 4). Conditions: dose-dependent. Type of series: cell-based. How it is done:
FIG. 4 represents the levels of expression of surface MHC-I in uninfected SupT1 cells (GFP-negative) incubated with vehicle alone (0.1% DMSO) or with compounds #40, #53, #54, #56 or #100 at different concentrations. Values are shown as the percentage of the MHC-I expression observed in cells treated with 0.1% DMSO alone. All samples were incubated with HIV-1 reporter virus (NL4.3-GFP) except those shown as ΔNef, which are shown for reference and were treated with nef-defective virus.
To determine whether the inhibitors of MHC-I downmodulation are specific for HIV infection a study to determine whether the compounds also interfere with expression of MHC-I in uninfected cells was undertaken. The effect of the same compounds was evaluated in SupT-1 cells treated with HIV-1 as shown before, but this time the levels of expression of MHC-I were obtained in GFP-negative cells (FIG. 4). […] The increase was dose-dependent and compounds elevated MHC-I levels by as much as 70% (as compared to cells treated with vehicle alone).

Series [2] relates to downmodulation of MHC-I molecules expressed on the surface of HIV infected SupT1 cells. The settings on record: for EC50: read-out: EC50 for inhibition of MHC-I downmodulation utilizing the R1 parameter, SupT1 cells infected with HIV-1, compounds added 20 h after infection, 24 h incubation.
The test system is the same in series [3]. Briefly: cells.
The next series can be described thus: in vitro. Conditions: human, uninfected SupT1 cells.
For series [4], the system named is MHC-I surface expression in uninfected SupT1 cells. Briefly: Increase of MHC-I surface expression in uninfected SupT1 cells (mean-MHC-I EC50, FIG. 6A). It counts as cell-based. The settings on record: Homo sapiens, SUP-T1, 24 h with compound, read-out: EC50 for MHC-I increased surface expression. How it is done:
In some instances, the effect of small molecules in modulation of surface MHC-I was monitored in uninfected (rather than HIV-infected) Sup-T1 cells (FIG. 6A). In these experiments uninfected SupT1 cells were incubated with the compounds for 24 h and then the increase in MHC-I surface expression was monitored by staining cells with the biotinylated HLA-A2/28 antibody (One Lambda, clone BIH0037), washed and then incubated with streptavidin conjugated with APC (Streptavidin APC, EBiosciences, 17-4317) to reveal the anti-HLA-A2 bound antibody. After washing the cells again they were fixed with 0.5% paraformaldehyde and submitted to flow cytometry to determine the levels of MHC-I surface expression (APC fluorescence) in live cells (as estimated by FS/SS in these cells). […] From these assays “mean-MHC-I” EC50 values were generated to indicate the concentration of compound that augments the mean surface levels of MHC-I to 50% of the highest levels accomplished by the compound, as compared to cells treated with vehicle alone. […] Therefore, both assays: inhibition of MHC-I downmodulation in HIV infected SupT1 cells, or increase in surface MHC-I in uninfected SupT1 cells, were indistinctively used to monitor the potency of the compounds to modulate surface expression of MHC-I in SupT1 cells.
Table 7 show the activity of selected compounds utilizing the assay in which the increase of MHC-I surface expression in uninfected SupT1 cells was evaluated, as shown in FIG. 6A. The EC50 for MHC-I increased surface expression was determined using the methods described in Example 2 and illustrated in FIG. 6A.

A further series has as its system uninfected SupT1 cells. Briefly: Compound-induced toxicity, XTT cell viability assay. Conditions: read-out: CC50 (concentration reducing cell viability by 50%), XTT method, 48 h, Tables 3 and 4.
[5] abbreviates: Human immunodeficiency virus 1, SUP-T1, read-out: EC50 for inhibition of MHC-I downmodulation utilizing the R1 parameter.

`Cc1ccc(CN(C(=O)COc2cccc3c2OC(C)(C)C3)c2nc3c(s2)CCCC3)nc1` [Compound 40, 2-((2,2-Dimethyl-2,3-dihydrobenzofuran-7-yl)oxy)-N-((5-methylpyridin-2-yl)methyl)-N-(4,5,6,7-tetrahydrobenzo[d]thiazol-2-yl)acetamide]: in series [1], the “surface levels of MHC-I in uninfected cells” value (“surface levels of MHC-I” below) is “increased the surface levels of MHC-I in uninfected cells”. Moreover, the “viability of the cell culture (estimated by FS/SS)” value in series [2] (100 nM compound, FIG. 2G) is “nor the viability of the cell culture (estimated by FS/SS) was affected”. In series [2] (100 nM compound, SupT1 cells infected with wild-type virus), the “R4 values lower than in cells treated with DMSO only” value is “approximately 10 fold”. Besides, in series [3] (setting [5]), the EC50 is 8 nM. The CC50 at 48 h in the series “in vitro” was over 100000 nM.

For the compound `CCN(C(=O)COc1cccc2c1OC(C)(C)C2)c1nc2c(s1)CCCC2` [Compound 54, 2-((2,2-Dimethyl-2,3-dihydrobenzofuran-7-yl)oxy)-N-ethyl-N-(4,5,6,7-tetrahydrobenzo[d]thiazol-2-yl)acetamide], the “surface levels of MHC-I” value in series [1] was “increased the surface levels of MHC-I in uninfected cells”. The EC50 in series [3] (setting [5]) came out at 8 nM; in series [4], 9 nM. For the same compound, the CC50 in the series “in vitro” was over 125000 nM. In “in vitro”, this compound had a CC50 at 48 h of over 125000 nM.

With `C=CCN(C(=O)COc1cccc2c1OC(C)(C)C2)c1nc2c(s1)CCCC2` [Compound 56, N-Allyl-2-((2,2-dimethyl-2,3-dihydrobenzofuran-7-yl)oxy)-N-(4,5,6,7-tetrahydrobenzo[d]thiazol-2-yl)acetamide], the “surface levels of MHC-I” value in series [1] is “increased the surface levels of MHC-I in uninfected cells”. Also, the EC50 in series [3] (Human immunodeficiency virus 1, SUP-T1, 24 h, read-out: EC50 for R1 (inhibition of MHC-I downmodulation)) is about 1 nM; in series [3] (setting [5]) it was 1 nM; in series [4], 6 nM. The CC50 in the series “in vitro” is over 125000 nM. In the series “in vitro”, this compound showed a CC50 at 48 h of over 125000 nM.

Consider `CC1(C)Cc2cccc(CCC(=O)Nc3nc4ccccc4s3)c2O1` [Compound 108, N-(Benzo[d]thiazol-2-yl)-3-(2,2-dimethyl-2,3-dihydrobenzofuran-7-yl) propanamide], for which the CC50 in the series on uninfected SupT1 cells is over 100000 nM. The EC50 in series [2] turned out to be 1370 nM.

Regarding `Cc1ccccc1CCC(=O)N(C)c1nc2c(s1)CCCC2` [Compound 109, N-Methyl-N-(4,5,6,7-tetrahydrobenzo[d]thiazol-2-yl)-3-(o-tolyl) propanamide], the CC50 in the series on uninfected SupT1 cells is over 125000 nM. For the same compound, the EC50 in series [2] turned out to be 2100 nM.

The term EC50 denotes the concentration needed to bring the measured effect to its halfway point.
